Test results published in patent US20240043404A1 (AbbVie Inc., priority 2009, published 2024).
Read-outs that look alike come from different tables or passages of the source.

System: RS4;11 cells
Test: RS4;11 cell viability assay (CellTiter Glo);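 further: acute lymphoblastic leukemia line RS4,11, EC50 derived from percentage of viable cells after treatment relative to untreated controls, cell killing taken as a measure of Bcl-2 inhibition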
Assay type: cell-based, human
Conditions: Homo sapiens, read-out: RS4
[1] = RS4-11, 48 h, 50,000 cells per well, 10% human serum, 48 hours, 11 EC50 Values
[2] = RS4-11, Table 5, direct comparison Z=N with corresponding analogs Z=C, 11 EC50

Procedure: The acute lymphoblastic leukemia (ALL) cell line RS4;11 was used as the primary human cell line to assess the cellular activity of Bcl-2 selective agents in vitro and their efficacy in vivo.
Cell cytotoxicity EC50 values were assessed using CellTiter Glo (Promega) according to the manufacturer's recommendations. The EC50 values were determined as a percentage of viable cells following treatment compared to the untreated control cells.

Row | Compound | EC50 [1] [nM] | EC50 [2] [nM] | EC50 (RS4-11, Table 4, selected compounds in U.S. Pat. Application No. 12/631404, 11 EC50) [nM]
1 | CC1(C)CCC(CN2CCN(c3ccc(C(=O)NS(=O)(=O)c4ccc(NC5CCS(=O)(=O)CC5)c([N+](=O)[O-])c4)c(Oc4cnc5[nH]ccc5c4)c3)CC2)=C(c2ccc(Cl)cc2)C1 [Example 81, 4-(4-{[2-(4-chlorophenyl)-4,4-dimethylcyclohex-1-en-1-yl]methyl}piperazin-1-yl)-N-({4-[(1,1-dioxidotetrahydro-2H-thiopyran-4-yl)amino]-3-nitrophenyl}sulfonyl)-2-(1H-pyrrolo[2,3-b]pyridin-5-yloxy)benzamide] | 48.1 | – | –
2 | CC1(C)CCC(CN2CCN(c3ccc(C(=O)NS(=O)(=O)c4ccc(Cl)c([N+](=O)[O-])c4)c(Oc4cnc5[nH]ccc5c4)c3)CC2)=C(c2ccc(Cl)cc2)C1 [Example 82, N-[(4-chloro-3-nitrophenyl)sulfonyl]-4-(4-{[2-(4-chlorophenyl)-4,4-dimethylcyclohex-1-en-1-yl]methyl}piperazin-1-yl)-2-(1H-pyrrolo[2,3-b]pyridin-5-yloxy)benzamide] | 684 | – | –
3 | CC1(C)CCC(CN2CCN(c3ccc(C(=O)NS(=O)(=O)c4ccc(NC5CCN(CC(F)(F)F)CC5)c([N+](=O)[O-])c4)c(Oc4cnc5[nH]ccc5c4)c3)CC2)=C(c2ccc(Cl)cc2)C1 [Example 83, 4-(4-{[2-(4-chlorophenyl)-4,4-dimethylcyclohex-1-en-1-yl]methyl}piperazin-1-yl)-N-[(3-nitro-4-{[1-(2,2,2-trifluoroethyl)piperidin-4-yl]amino}phenyl)sulfonyl]-2-(1H-pyrrolo[2,3-b]pyridin-5-yloxy)benzamide] | 197 | – | –
4 | CC1(C)CCC(CN2CCN(c3ccc(C(=O)NS(=O)(=O)c4cnc(OC5CCN(C6CCOCC6)CC5)c(C#N)c4)c(Oc4cnc5[nH]ccc5c4)c3)CC2)=C(c2ccc(Cl)cc2)C1 [Example 84, 4-(4-{[2-(4-chlorophenyl)-4,4-dimethylcyclohex-1-en-1-yl]methyl}piperazin-1-yl)-N-({5-cyano-6-[(1-tetrahydro-2H-pyran-4-ylpiperidin-4-yl)oxy]pyridin-3-yl}sulfonyl)-2-(1H-pyrrolo[2,3-b]pyridin-5-yloxy)benzamide] | 158 | – | –
5 | CC(C)c1cc(S(=O)(=O)NC(=O)c2ccc(N3CCN(CC4=C(c5ccc(Cl)cc5)CC(C)(C)CC4)CC3)cc2Oc2cnc3[nH]ccc3c2)cnc1OCC1CCOCC1 [Example 85, 4-(4-{[2-(4-chlorophenyl)-4,4-dimethylcyclohex-1-en-1-yl]methyl}piperazin-1-yl)-N-{[5-isopropyl-6-(tetrahydro-2H-pyran-4-ylmethoxy)pyridin-3-yl]sulfonyl}-2-(1H-pyrrolo[2,3-b]pyridin-5-yloxy)benzamide] | 1950 | – | –
6 | CC1(C)CCC(CN2CCN(c3ccc(C(=O)NS(=O)(=O)c4cc(F)c(NCC5CCOCC5)c(Cl)c4)c(Oc4cnc5[nH]ccc5c4)c3)CC2)=C(c2ccc(Cl)cc2)C1 [Example 86, N-({3-chloro-5-fluoro-4-[(tetrahydro-2H-pyran-4-ylmethyl)amino]phenyl}sulfonyl)-4-(4-{[2-(4-chlorophenyl)-4,4-dimethylcyclohex-1-en-1-yl]methyl}piperazin-1-yl)-2-(1H-pyrrolo[2,3-b]pyridin-5-yloxy)benzamide] | 1020 | – | –
7 | O=C(NS(=O)(=O)c1ccc(NCCCN2CCOCC2)c([N+](=O)[O-])c1)c1ccc(N2CCN(Cc3ccccc3-c3ccc(Cl)cc3)CC2)cc1Oc1ccc2[nH]ccc2c1 [Example 88, 4-{4-[(4′-chloro-1,1′-biphenyl-2-yl)methyl]piperazin-1-yl}-2-(1H-indol-5-yloxy)-N-({4-[(3-morpholin-4-ylpropyl)amino]-3-nitrophenyl}sulfonyl)benzamide] | 447 | – | –
8 | CN1CCC(Nc2ccc(S(=O)(=O)NC(=O)c3ccc(N4CCN(CC5=C(c6ccc(Cl)cc6)CC(C)(C)CC5)CC4)cc3Oc3ccc4[nH]ccc4c3)cc2[N+](=O)[O-])CC1 [Example 90, 4-(4-{[2-(4-chlorophenyl)-4,4-dimethylcyclohex-1-en-1-yl]methyl}piperazin-1-yl)-2-(1H-indol-5-yloxy)-N-({4-[(1-methylpiperidin-4-yl)amino]-3-nitrophenyl}sulfonyl)benzamide] | 63 | 63 | –
9 | CC1(C)CCC(CN2CCN(c3ccc(C(=O)NS(=O)(=O)c4ccc(OCC5COCCO5)c([N+](=O)[O-])c4)c(Oc4ccc5[nH]ccc5c4)c3)CC2)=C(c2ccc(Cl)cc2)C1 (centres unmarked) [Example 92, 4-(4-{[2-(4-chlorophenyl)-4,4-dimethylcyclohex-1-en-1-yl]methyl}piperazin-1-yl)-N-{[4-(1,4-dioxan-2-ylmethoxy)-3-nitrophenyl]sulfonyl}-2-(1H-indol-5-yloxy)benzamide] | 80.9 | – | 81
10 | COCCNc1ccc(S(=O)(=O)NC(=O)c2ccc(N3CCN(CC4=C(c5ccc(Cl)cc5)CC(C)(C)CC4)CC3)cc2Oc2ccc3[nH]ccc3c2)cc1S(=O)(=O)C(F)(F)F [Example 93, 4-(4-{[2-(4-chlorophenyl)-4,4-dimethylcyclohex-1-en-1-yl]methyl}piperazin-1-yl)-2-(1H-indol-5-yloxy)-N-({4-[(2-methoxyethyl)amino]-3-[(trifluoromethyl)sulfonyl]phenyl}sulfonyl)benzamide] | > 5000 | > 5000 | –
11 | CC1(C)CCC(CN2CCN(c3ccc(C(=O)NS(=O)(=O)c4ccc(NCC5CCOCC5)c(S(=O)(=O)C(F)(F)F)c4)c(Oc4ccc5[nH]ccc5c4)c3)CC2)=C(c2ccc(Cl)cc2)C1 [Example 94, 4-(4-{[2-(4-chlorophenyl)-4,4-dimethylcyclohex-1-en-1-yl]methyl}piperazin-1-yl)-2-(1H-indol-5-yloxy)-N-({4-[(tetrahydro-2H-pyran-4-ylmethyl)amino]-3-[(trifluoromethyl)sulfonyl]phenyl}sulfonyl)benzamide] | 1690 | 1690 | –
12 | CC1(C)CCC(CN2CCN(c3ccc(C(=O)NS(=O)(=O)c4ccc(NC5CCN(C(CF)CF)CC5)c([N+](=O)[O-])c4)c(Oc4cnc5[nH]ccc5c4)c3)CC2)=C(c2ccc(Cl)cc2)C1 [Example 95, 4-(4-{[2-(4-chlorophenyl)-4,4-dimethylcyclohex-1-en-1-yl]methyl}piperazin-1-yl)-N-{[4-({1-[2-fluoro-1-(fluoromethyl)ethyl]piperidin-4-yl}amino)-3-nitrophenyl]sulfonyl}-2-(1H-pyrrolo[2,3-b]pyridin-5-yloxy)benzamide] | 29.5 | – | –
13 | CC1(C)CCC(CN2CCN(c3ccc(C(=O)NS(=O)(=O)c4cnc(OCC5(F)CCOCC5)c(Cl)c4)c(Oc4cnc5[nH]ccc5c4)c3)CC2)=C(c2ccc(Cl)cc2)C1 [Example 96, N-({5-chloro-6-[(4-fluorotetrahydro-2H-pyran-4-yl)methoxy]pyridin-3-yl}sulfonyl)-4-(4-{[2-(4-chlorophenyl)-4,4-dimethylcyclohex-1-en-1-yl]methyl}piperazin-1-yl)-2-(1H-pyrrolo[2,3-b]pyridin-5-yloxy)benzamide] | 43.6 | – | –
14 | CC1(C)CCC(CN2CCN(c3ccc(C(=O)NS(=O)(=O)c4ccc(NC5CCN(CC(F)F)CC5)c([N+](=O)[O-])c4)c(Oc4cnc5[nH]ccc5c4)c3)CC2)=C(c2ccc(Cl)cc2)C1 [Example 97, 4-(4-{[2-(4-chlorophenyl)-4,4-dimethylcyclohex-1-en-1-yl]methyl}piperazin-1-yl)-N-[(4-{[1-(2,2-difluoroethyl)piperidin-4-yl]amino}-3-nitrophenyl)sulfonyl]-2-(1H-pyrrolo[2,3-b]pyridin-5-yloxy)benzamide] | 55.6 | – | –
15 | CC1(C)CCC(CN2CCN(c3ccc(C(=O)NS(=O)(=O)c4ccc(NC5CCN(C6CC6)CC5)c([N+](=O)[O-])c4)c(Oc4cnc5[nH]ccc5c4)c3)CC2)=C(c2ccc(Cl)cc2)C1 [Example 98, 4-(4-{[2-(4-chlorophenyl)-4,4-dimethylcyclohex-1-en-1-yl]methyl}piperazin-1-yl)-N-({4-[(1-cyclopropylpiperidin-4-yl)amino]-3-nitrophenyl}sulfonyl)-2-(1H-pyrrolo[2,3-b]pyridin-5-yloxy)benzamide] | 22.9 | – | –
16 | CC1(C)CCC(CN2CCN(c3ccc(C(=O)NS(=O)(=O)c4ccc(NCC5(N6CCOCC6)CCCCC5)c([N+](=O)[O-])c4)c(Oc4cnc5[nH]ccc5c4)c3)CC2)=C(c2ccc(Cl)cc2)C1 [Example 99, 4-(4-{[2-(4-chlorophenyl)-4,4-dimethylcyclohex-1-en-1-yl]methyl}piperazin-1-yl)-N-[(4-{[(1-morpholin-4-ylcyclohexyl)methyl]amino}-3-nitrophenyl)sulfonyl]-2-(1H-pyrrolo[2,3-b]pyridin-5-yloxy)benzamide] | 1390 | – | –
17 | CC1(C)CCC(CN2CCN(c3ccc(C(=O)NS(=O)(=O)c4ccc(N[C@H]5CC[C@H](N(C6CC6)C6CC6)CC5)c([N+](=O)[O-])c4)c(Oc4cnc5[nH]ccc5c4)c3)CC2)=C(c2ccc(Cl)cc2)C1 [Example 100, Trans-4-(4-{[2-(4-chlorophenyl)-4,4-dimethylcyclohex-1-en-1-yl]methyl}piperazin-1-yl)-N-[(4-{[4-(dicyclopropylamino)cyclohexyl]amino}-3-nitrophenyl)sulfonyl]-2-(1H-pyrrolo[2,3-b]pyridin-5-yloxy)benzamide] | 137 | – | –
18 | CC1(C)CCCC(c2ccc(Cl)cc2)=C1CN1CCN(c2ccc(C(=O)NS(=O)(=O)c3ccc(NCC4CCOCC4)c([N+](=O)[O-])c3)c(Oc3cnc4[nH]ccc4c3)c2)CC1 [Example 101, 4-(4-{[2-(4-chlorophenyl)-6,6-dimethylcyclohex-1-en-1-yl]methyl}piperazin-1-yl)-N-({3-nitro-4-[(tetrahydro-2H-pyran-4-ylmethyl)amino]phenyl}sulfonyl)-2-(1H-pyrrolo[2,3-b]pyridin-5-yloxy)benzamide] | 299 | – | –
19 | CCN1CCOCC1COc1ncc(S(=O)(=O)NC(=O)c2ccc(N3CCN(CC4=C(c5ccc(Cl)cc5)CC(C)(C)CC4)CC3)cc2Oc2cnc3[nH]ccc3c2)cc1Br (centres unmarked) [Example 102, N-({5-bromo-6-[(4-ethylmorpholin-3-yl)methoxy]pyridin-3-yl}sulfonyl)-4-(4-{[2-(4-chlorophenyl)-4,4-dimethylcyclohex-1-en-1-yl]methyl}piperazin-1-yl)-2-(1H-pyrrolo[2,3-b]pyridin-5-yloxy)benzamide] | 622 | – | –
